From patent US11059815B2, “Synthesis of small molecule histone deacetylase 6 degraders, compounds formed thereby, and pharmaceutical compositions containing them” (Wisconsin Alumni Research Foundation, priority 2018, dated 2021) come the findings set out here.

Structures are written as SMILES. Read-outs that look alike come from different tables or passages of the source.

The assay has as its system MM1S cells. In words: Cell viability assay in MM1S cells. The format is cell-based, human. To be noted: for Maximal Inhibition (%) of growth / IC50: 0.3 nM to 3 μM, nonlinear fit, ± SD; for IC50 / inhibition at 1 µM: Homo sapiens, MM1.S; for IC50: read-out: IC50 of antiproliferation. The protocol: FIG. 14A is a histogram depicting cell viability of MM1S cells treated with compounds at 1 μM for 72 h. FIG. 14B is a graph showing cell viability of MM1S cells treated with compounds at concentrations from 0.3 nM to 3 μM for 72 h. All data were normalized to vehicle (DMSO)-treated group and dot plot represented as mean of relative viability (n=3) with ±SD as error bar. For the curve in FIG. 14B, nonlinear fitting of inhibitor concentration vs. response (three parameters) was generated by GraphPad Prism with R^2 from 0.92 to 0.97. Statistical significance was analyzed by one-way ANOVA for FIG. 14A and two-way ANOVA for FIG. 14B. Not significant (ns) P>0.05, *P≤0.05, **P≤0.01, ***P≤0.001, ****P≤0.0001.
FIG. 18 is a histogram showing that HDAC6 degrader and IMiD inhibited MM1S growth synergistically. MM1S cells were treated for 72 h and cell proliferation was examined by AlarmaBlue-brand cell viability assay (ThermoFisher Scientific, Waltham, Mass., USA). Statistical significance was analyzed by one-way ANOVA. Not significant (ns) P>0.05, *P≤0.05, **P≤0.01, ***P≤0.001, ****P≤0.000
Single treatment or co-treatment was performed as combined therapy (1 μM) for 72 hours in MM1S cells. […] However, the single treatment of 12d improved about 19% (P=0.0017) and 11% (P=0.0213) growth inhibition comparing with the combination sets of 13+15 (1:1) and pomalidomide+Next-A (1:1), respectively. To further confirm the observed enhancement, the anti-proliferation in response to 12d was studied from 0.3 nM to 3 μM. This single treatment was compared with dual treatment of 13 and 15 to rule out the potential complication derived from cell permeability issue. Degrader 12d lowered the bottom line (minimal proliferation) of curve over 20% although its IC50 was […] consequentially.
MM1S cells were harvested and plated with 1×10^5 cells in […] media per well in 96-well plate. After overnight seeding, 25 μL media containing 5× dosing concentration of the compounds or vehicle was added to each well. After 72-hour treatment at 37° C. in a humidified 5% CO2 atmosphere, 12.5 μL 10× resazurin solution (1 mg/mL) was added to each well. Then cells were incubated at 37° C. overnight. The optical density was read at 570 nm and 600 nm by plate reader.
The relative viability (RV) was measured by followed formula: […]
The single treatment of HDAC6 inhibitor, HDAC6 degrader 3j, IMiD (pomalidomide), and the combination of the two was compared in MM1S cells to evaluate cell vialility. […] Pomalidomide suppressed ˜50% proliferation at either 1 μM or 100 nM concentration. […] The results confirmed that HDAC6 degradation and IKZF degradation work synergistically to inhibit the growth of multiple myeloma cells.

For the molecule `CCCCN(Cc1ccc(C(=O)OC)cc1)C(=O)Nc1ccc(OCCCCCn2cc(CNc3cccc4c3C(=O)N(C3CCC(=O)NC3=O)C4=O)nn2)cc1` (stereo not shown) [Compound 13, Methyl 4-((1-butyl-3-(4-((5-(4-(((2-(2,6-dioxopiperidin-3-yl)-1,3-dioxoisoindolin-4-yl)amino)methyl)-1H-1,2,3-triazol-1-yl)pentyl)oxy)phenyl)ureido)methyl)benzoate], where the note is “72 h”, the “Maximal Inhibition (%) of growth” value is given as 43.96 ± 1.16% and the IC50 turned out to be 17.7 ± 2.84 nM.

On to `CCCCN(Cc1ccc(C(=O)NO)cc1)C(=O)Nc1ccc(OCCCCCn2cc(CNc3cccc4c3C(=O)N(C3CCC(=O)NC3=O)C4=O)nn2)cc1` (stereo not shown) [Compound 2], for which the “anti-proliferation effect of degrader alone” value is listed as “significant anti-proliferation effect”.

As a reminder, the inhibition is the drop in the measured response relative to a control, in per cent. As to `CCCCN(Cc1ccc(C(=O)NO)cc1)C(=O)Nc1ccc(OCCCCCn2cc(CNc3cccc4c3C(=O)N(C3CCC(=O)NC3=O)C4=O)nn2)cc1` (stereo not shown) [Compound 12d, 4-((1-butyl-3-(4-((5-(4-(((2-(2,6-dioxopiperidin-3-yl)-1,3-dioxoisoindolin-4-yl)amino)methyl)-1H-1,2,3-triazol-1-yl)pentyl)oxy)phenyl)ureido)methyl)-N-hydroxybenzamide], for the setting “72 h”, the “Maximal Inhibition (%) of growth” value stood at 63.15 ± 1.82%; the “degrader concentration at which HDAC6 degradation and IKZF degradation had synergistic effects” value was above 300 nM; the IC50 stood at 74.9 ± 11.3 nM. Further, the “lowering of bottom line (minimal proliferation) of curve” value (72 h, versus 13 and 15 dual treatment) is “over 20%”. The inhibition at 1 µM (1 μM, 72 h, P=0.0017, read-out: improvement of growth inhibition compared with 13+15 (1:1)) was around 19%. Also, the inhibition at 1 µM (1 μM, 72 h, P=0.0213, read-out: improvement of growth inhibition compared with pomalidomide+Next-A (1:1)) was around 11%.

Regarding `CCCCN(Cc1ccc(C(=O)NO)cc1)C(=O)Nc1ccc(OCCCCCn2cc(CNc3cccc4c3C(=O)N(C3CCC(=O)N(C)C3=O)C4=O)nn2)cc1` (stereo not shown) [Compound 15, 4-((1-butyl-3-(4-((5-(4-(((2-(1-methyl-2,6-dioxopiperidin-3-yl)-1,3-dioxoisoindolin-4-yl)amino)methyl)-1H-1,2,3-triazol-1-yl)pentyl)oxy)phenyl)ureido)methyl)-N-hydroxybenzamide], where the note is “1 μM, 72 h”, the “effect on cell growth” value is “totally inactive”.

For the molecule `Nc1cccc2c1C(=O)N(C1CCC(=O)NC1=O)C2=O` (stereo not shown) [Pomalidomide, reference compound], the suppression of proliferation (either 1 μM or 100 nM, 72 h) is on record as around 50%.

With `CCCCN(Cc1ccc(C(=O)NO)cc1)C(=O)Nc1ccccc1` [Next-A, 4-[[butyl[(phenylamino)carbonyl]amino]methyl]-N-hydroxy-benzamide, reference compound], under “1 μM, 72 h”, the “anti-proliferation effect, single treatment” value is on record as “did not show any anti-proliferation effect” and the “effect on cell growth” value is listed as “minor effects”.
